According to ChEMBL document CHEMBL5465560, “Selectivity Literature for EUbOPEN Chemogenomic Library” (2024):
Values belong to the molecule of their own block, whether it stands above or below them.

Tests used:
[1] = molecular target: T1, Dual specificity tyrosine-phosphorylation-regulated kinase 2 (Homo sapiens) (UniProt Q92630); assay: Selectivity interaction (LanthaScreen Eu Kinase Binding Assay) EUB0001632a DYRK2; settings: at 10 µM
T1 sequence (whole entry): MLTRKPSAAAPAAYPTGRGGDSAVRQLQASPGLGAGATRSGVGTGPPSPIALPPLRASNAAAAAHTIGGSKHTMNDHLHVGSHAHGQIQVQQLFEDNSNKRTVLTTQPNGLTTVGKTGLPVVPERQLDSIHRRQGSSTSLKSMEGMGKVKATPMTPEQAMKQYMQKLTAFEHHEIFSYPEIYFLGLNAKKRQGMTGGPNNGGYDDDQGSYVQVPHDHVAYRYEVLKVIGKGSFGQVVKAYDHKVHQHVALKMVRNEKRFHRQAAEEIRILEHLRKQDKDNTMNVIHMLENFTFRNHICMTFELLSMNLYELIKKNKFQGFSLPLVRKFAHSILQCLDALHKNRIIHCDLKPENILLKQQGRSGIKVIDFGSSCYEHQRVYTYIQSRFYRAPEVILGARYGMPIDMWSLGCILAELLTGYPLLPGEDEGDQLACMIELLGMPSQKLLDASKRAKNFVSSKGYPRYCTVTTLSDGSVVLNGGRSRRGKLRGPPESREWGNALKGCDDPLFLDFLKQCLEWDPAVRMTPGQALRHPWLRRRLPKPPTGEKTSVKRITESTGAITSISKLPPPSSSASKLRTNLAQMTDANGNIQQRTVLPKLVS

Activated CDC42 kinase 1 = Activated CDC42 kinase 1 (Homo sapiens, UniProt Q07912); assay: Selectivity interaction (KinomeScan (DiscoverX)) EUB0000595a TNK2; settings: at 10 µM
[2] = molecular target: Serine/threonine-protein kinase 26 (Homo sapiens, UniProt Q9P289); assay: Selectivity interaction (KinomeScan (DiscoverX)) EUB0001079a STK26; settings: at 1 µM
[3] = molecular target: ALK tyrosine kinase receptor (Homo sapiens, UniProt Q9UM73); assay: Selectivity interaction (Upstate Kinase Profiler service (Millipore)) EUB0000056c ALK; settings: at 1 µM
[4] = molecular target: T2, Testis-specific serine/threonine-protein kinase 1 (Homo sapiens) (UniProt Q9BXA7); assay: Selectivity interaction (KinomeScan (DiscoverX)) EUB0000045b TSSK1A
T2 sequence (whole entry): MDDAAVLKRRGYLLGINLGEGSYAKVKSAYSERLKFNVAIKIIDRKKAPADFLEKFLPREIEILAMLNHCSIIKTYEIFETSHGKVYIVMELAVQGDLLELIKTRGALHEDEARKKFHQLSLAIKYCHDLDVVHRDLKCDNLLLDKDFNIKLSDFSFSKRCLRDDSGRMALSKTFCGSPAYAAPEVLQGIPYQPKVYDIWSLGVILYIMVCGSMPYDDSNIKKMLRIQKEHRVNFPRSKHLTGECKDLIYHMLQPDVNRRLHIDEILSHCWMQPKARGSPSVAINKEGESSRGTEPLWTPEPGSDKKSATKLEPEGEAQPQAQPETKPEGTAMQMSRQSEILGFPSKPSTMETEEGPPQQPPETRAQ

[5] = molecular target: T3, Ephrin type-B receptor 3 (Homo sapiens) (UniProt P54753); assay: Selectivity interaction (Kinase panel (DSF assay)) EUB0001558a EPHB3
T3 sequence (whole entry): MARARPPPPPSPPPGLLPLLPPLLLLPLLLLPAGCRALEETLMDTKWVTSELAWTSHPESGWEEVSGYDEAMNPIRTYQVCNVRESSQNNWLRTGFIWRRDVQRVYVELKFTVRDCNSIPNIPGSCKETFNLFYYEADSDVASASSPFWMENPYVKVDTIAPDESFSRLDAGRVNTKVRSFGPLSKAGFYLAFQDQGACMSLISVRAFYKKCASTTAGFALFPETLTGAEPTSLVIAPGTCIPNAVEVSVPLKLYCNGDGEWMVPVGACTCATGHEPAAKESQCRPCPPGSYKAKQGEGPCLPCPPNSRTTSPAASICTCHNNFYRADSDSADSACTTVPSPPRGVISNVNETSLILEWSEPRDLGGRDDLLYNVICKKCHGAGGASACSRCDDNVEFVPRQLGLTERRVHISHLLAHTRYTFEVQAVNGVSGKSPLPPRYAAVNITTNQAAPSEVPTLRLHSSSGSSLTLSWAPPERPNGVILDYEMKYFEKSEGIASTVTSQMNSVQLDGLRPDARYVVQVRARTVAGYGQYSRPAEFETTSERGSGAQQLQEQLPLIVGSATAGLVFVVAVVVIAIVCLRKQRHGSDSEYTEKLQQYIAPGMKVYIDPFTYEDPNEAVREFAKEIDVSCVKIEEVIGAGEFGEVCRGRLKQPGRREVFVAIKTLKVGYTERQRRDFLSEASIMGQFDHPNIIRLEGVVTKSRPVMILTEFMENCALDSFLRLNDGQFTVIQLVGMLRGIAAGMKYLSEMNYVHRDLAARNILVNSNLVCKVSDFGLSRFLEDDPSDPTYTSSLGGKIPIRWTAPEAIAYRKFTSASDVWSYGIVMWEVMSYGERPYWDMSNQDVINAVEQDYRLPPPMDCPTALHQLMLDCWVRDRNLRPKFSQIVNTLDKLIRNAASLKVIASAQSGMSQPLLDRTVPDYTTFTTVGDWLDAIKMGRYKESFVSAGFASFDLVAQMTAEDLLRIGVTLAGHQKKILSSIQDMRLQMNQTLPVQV

Sequence of Serine/threonine-protein kinase 26 (Q9P289 2-416 limits assumed): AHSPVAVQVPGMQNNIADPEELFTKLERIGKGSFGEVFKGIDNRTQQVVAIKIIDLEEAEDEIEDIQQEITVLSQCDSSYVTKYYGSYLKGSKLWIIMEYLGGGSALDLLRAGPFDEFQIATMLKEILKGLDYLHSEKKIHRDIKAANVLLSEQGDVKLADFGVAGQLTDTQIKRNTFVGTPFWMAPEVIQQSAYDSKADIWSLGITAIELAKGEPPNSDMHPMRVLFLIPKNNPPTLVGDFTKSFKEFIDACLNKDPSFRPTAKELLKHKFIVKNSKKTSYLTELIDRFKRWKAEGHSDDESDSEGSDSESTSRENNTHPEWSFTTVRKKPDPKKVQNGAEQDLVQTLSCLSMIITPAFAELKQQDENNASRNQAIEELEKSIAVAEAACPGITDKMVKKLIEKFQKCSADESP
Sequence of Activated CDC42 kinase 1 (Q07912 whole entry, looked up): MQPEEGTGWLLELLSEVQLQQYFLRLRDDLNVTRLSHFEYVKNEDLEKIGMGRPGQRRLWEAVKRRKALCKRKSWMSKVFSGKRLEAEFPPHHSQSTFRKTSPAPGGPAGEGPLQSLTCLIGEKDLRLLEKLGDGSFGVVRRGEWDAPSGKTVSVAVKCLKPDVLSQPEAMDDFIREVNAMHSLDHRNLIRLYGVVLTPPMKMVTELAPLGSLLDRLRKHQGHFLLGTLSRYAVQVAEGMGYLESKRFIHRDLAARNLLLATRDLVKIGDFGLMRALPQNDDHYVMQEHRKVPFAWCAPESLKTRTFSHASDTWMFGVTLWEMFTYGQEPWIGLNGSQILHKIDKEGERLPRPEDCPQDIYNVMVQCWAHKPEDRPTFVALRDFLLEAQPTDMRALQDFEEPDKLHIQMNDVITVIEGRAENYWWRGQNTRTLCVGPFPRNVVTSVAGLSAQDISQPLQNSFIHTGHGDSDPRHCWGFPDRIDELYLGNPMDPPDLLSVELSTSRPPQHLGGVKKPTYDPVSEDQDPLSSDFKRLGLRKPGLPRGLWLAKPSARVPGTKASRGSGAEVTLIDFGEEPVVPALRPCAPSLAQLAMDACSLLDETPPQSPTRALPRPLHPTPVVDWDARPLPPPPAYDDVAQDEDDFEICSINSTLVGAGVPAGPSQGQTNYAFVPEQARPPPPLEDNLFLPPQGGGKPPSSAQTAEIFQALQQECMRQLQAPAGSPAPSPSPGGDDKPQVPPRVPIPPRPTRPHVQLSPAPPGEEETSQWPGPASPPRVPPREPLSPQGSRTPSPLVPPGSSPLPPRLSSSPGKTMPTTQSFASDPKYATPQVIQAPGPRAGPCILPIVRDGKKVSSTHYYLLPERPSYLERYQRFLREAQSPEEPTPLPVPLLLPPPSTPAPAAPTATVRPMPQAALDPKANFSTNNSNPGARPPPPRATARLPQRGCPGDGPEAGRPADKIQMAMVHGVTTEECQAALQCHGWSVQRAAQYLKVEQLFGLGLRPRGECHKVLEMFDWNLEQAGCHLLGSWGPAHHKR
Sequence of ALK tyrosine kinase receptor (Q9UM73 19-1620 limits assumed): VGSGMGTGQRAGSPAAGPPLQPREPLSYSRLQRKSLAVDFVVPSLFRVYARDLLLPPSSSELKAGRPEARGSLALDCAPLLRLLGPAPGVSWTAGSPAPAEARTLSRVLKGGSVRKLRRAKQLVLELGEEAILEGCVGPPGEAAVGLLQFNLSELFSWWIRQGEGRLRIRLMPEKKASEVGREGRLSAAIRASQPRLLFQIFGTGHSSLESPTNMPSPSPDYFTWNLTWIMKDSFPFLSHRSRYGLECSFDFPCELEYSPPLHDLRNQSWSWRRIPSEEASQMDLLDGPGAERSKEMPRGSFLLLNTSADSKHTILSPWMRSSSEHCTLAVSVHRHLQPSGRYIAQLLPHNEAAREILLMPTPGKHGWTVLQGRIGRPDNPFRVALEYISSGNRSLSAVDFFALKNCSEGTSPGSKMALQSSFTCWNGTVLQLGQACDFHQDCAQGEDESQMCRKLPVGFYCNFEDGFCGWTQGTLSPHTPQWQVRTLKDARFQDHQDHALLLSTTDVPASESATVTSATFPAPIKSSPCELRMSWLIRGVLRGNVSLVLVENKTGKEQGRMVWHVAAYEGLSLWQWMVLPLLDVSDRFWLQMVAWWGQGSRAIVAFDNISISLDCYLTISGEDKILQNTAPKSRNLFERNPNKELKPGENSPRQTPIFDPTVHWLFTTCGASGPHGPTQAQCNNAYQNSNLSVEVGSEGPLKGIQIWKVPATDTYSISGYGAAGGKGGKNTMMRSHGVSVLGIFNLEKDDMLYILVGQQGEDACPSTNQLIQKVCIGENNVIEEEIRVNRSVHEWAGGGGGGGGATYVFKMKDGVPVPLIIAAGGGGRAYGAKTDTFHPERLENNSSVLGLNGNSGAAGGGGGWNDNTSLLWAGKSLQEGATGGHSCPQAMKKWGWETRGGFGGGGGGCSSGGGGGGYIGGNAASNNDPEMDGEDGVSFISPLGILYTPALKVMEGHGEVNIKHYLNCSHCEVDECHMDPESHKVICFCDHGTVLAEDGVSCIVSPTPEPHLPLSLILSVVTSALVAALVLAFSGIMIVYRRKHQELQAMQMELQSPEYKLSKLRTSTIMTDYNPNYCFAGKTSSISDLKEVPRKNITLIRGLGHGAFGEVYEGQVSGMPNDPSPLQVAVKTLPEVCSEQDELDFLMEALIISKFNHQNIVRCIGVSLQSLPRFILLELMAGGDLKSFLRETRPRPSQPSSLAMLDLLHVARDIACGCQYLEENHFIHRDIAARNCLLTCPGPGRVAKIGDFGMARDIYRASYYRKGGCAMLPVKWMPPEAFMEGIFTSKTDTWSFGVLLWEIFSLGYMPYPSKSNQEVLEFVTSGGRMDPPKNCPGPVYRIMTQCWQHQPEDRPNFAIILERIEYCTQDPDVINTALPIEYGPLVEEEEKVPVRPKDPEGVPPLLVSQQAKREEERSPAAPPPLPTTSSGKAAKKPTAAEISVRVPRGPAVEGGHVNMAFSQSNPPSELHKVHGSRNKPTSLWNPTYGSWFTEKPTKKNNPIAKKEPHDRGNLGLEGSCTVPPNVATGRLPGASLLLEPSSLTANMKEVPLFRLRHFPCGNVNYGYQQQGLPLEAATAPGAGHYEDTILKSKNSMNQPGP

% of inhibition [1]: -265%
Compound: Cn1cc(-n2cnc3c(NCc4nc5cc(Cl)c(Cl)cc5[nH]4)nc(N4CCOCC4)nc32)cn1

Compound: COCC(=O)NC/C=C/c1ccc2ncnc(Nc3ccc(Oc4ccc(C)nc4)c(C)c3)c2c1 [CP-724714]
% of control (Activated CDC42 kinase 1): 78%

Compound: Nc1cnc(N2CCc3cc(S(=O)(=O)Nc4c(F)cc(Cl)cc4F)cc(N4CCCC4=O)c32)nc1 [TP-020n]
% of control [2]: 83%

% of inhibition [3]: 43%
Compound: Cc1ccc(-c2ccc3c(ccc4sc5c(c43)NC[C@@H](C)NC5=O)n2)cn1

Compound: C=CC(=O)Nc1cc(-n2c(=O)ccc3cnc4ccc(-c5ccc(NS(C)(=O)=O)cc5)cc4c32)ccc1C
% of control ([4]; at 1 µM): 100%
% of control ([4]; at 10 µM): 74%

Compound: CC(C)(O)[C@H](F)CN1Cc2cc(NC(=O)c3cnn4cccnc34)c(N3CCOCC3)cc2C1=O
dTM [5]: 2.1 K
